Values of other authors as cited in patent US20200399148A1, “METHOD AND APPARATUS FOR ELECTROCHEMICAL pH CONTROL” (BAR-ILAN UNIVERSITY, priority 2018, published 2020).

System: bacteria
Settings: relative to hypochlorous acid

Q: With `OCl` [OCl^−, hypochlorite anion] as the compound, how does the “bactericidal activity, times less than hypochlorous acid” value read?
A: Its value is 80-120 time less.
